Measured values as given in EP1388586A2, “Identification of broadly reactive DR restricted epitopes” (priority 1998, dated 1999).
Like-named read-outs stand apart in the source and are kept apart here. Ends that are not written are not given here.

Experiments:
[1] = test system: panel of purified HLA DR molecules; type: binding, human;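 further: competitive inhibition of radiolabeled probe peptide binding to purified HLA DR molecules, with inhibitory potency of unlabeled peptides taken as an approximation of affinity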
[2] = molecular target: T1, DRB10404 (DR4w14) (Homo sapiens, UniProt P01903+P01911, A100R/A169T/F76Y/I96L/K127E/L162R/M171V/N62H/P40V/Q125Y/R42H/S133A/S149N/S66Y/V209L/W38E); assay: Class II peptide-binding assay, DR4w14;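 further: unlabeled peptides compete with a radiolabeled probe for binding to affinity-purified HLA-DR, neutral pH, class II amount titrated to bind a small fraction of label, IC50 approximates Kd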
T1 construct: used as sources of human HLA class II molecules; endogenous in cells; host or cells: BIN40 (EBV-transformed homozygous B cell line)
Experimental: (§1) Class II peptide-binding assays. […] These assays were chosen as to be representative of the most common DR alleles.
In appropriate stoichiometric conditions, the IC50 of an unlabeled test peptide to the purified DR is a reasonable approximation of the affinity of interaction (Kd). Peptides were tested in two to four completely independent experiments. […] Final detergent concentration in the incubation mixture was 0.05% Nonidet P-40. Assays were performed at pH 7.0 with the exception of DR3, which was performed at pH 4.5, and DRw53, which was performed at pH 5.0.
(§2) All subsequent inhibition and direct binding assays were the performed using these class II concentrations.

[3] = molecular target: T2, DRB1*1101 (DR5w11) (Homo sapiens, UniProt P01903+P01911, A100R/A169T/A87E/I96F/K41T/L162R/M171V/P40S/Q125H/Q178H/Q39Y/Q99D/R42S/S66Y/T262R/V115G/W38E); assay: Class II peptide-binding assay, DR5w11;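 further: competition by unlabeled test peptide against iodinated probe peptide binding to affinity-purified HLA-DR, class II amount titrated beforehand, half-maximal inhibitory concentration read as approximate Kd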
T2 construct: used as sources of human HLA class II molecules; endogenous in cells; host or cells: SWEIG (EBV-transformed homozygous B cell line)
T2 sequence (P01903 26-254, other chains not shown): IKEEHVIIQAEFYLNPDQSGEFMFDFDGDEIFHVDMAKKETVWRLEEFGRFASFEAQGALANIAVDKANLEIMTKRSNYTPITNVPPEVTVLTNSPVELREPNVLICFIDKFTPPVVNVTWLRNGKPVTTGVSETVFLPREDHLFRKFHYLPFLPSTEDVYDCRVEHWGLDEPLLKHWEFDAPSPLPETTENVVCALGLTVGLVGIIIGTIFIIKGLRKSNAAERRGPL

[4] = molecular target: DRB1*0701 (DR7) (Homo sapiens, UniProt P01903+P01911, A100R/A102G/A103Q/D57E/D86V/E43K/F76Y/K127E/L162R/M171V/P40G/Q125H/Q99D/R33Q/R42Y/R54Q/S133A/S66F/T210M/V115G/Y107V/Y59L/Y89S); assay: Class II peptide-binding assay, DR7;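 further: unlabeled peptides compete with an iodinated probe peptide for binding to affinity-purified HLA-DR at neutral pH, DR amount titered to bind a small tracer fraction, IC50 approximating Kd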
[5] = molecular target: T3, DRB1*0101 (DR1) (Homo sapiens, UniProt P01903+P01911, A100R/D57E/F55L/F60I/F76Y/I96L/L162R/M171V/P40L/Q125E/R42F/V115G/Y59C); assay: Class II peptide-binding assay, DR1;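 further: competition assay: unlabeled test peptides inhibit binding of a radiolabeled probe peptide to purified DR, with half-maximal inhibition taken as an approximate dissociation constant Kd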
T3 construct: used as sources of human HLA class II molecules; endogenous in cells; host or cells: LG2 (EBV-transformed homozygous B cell line)
Experimental: as §1
(§3) Radiolabeled peptides were iodinated using the chloramine-T method. […] In appropriate stoichiometric conditions, the IC50 of an unlabeled test peptide to the purified DR is a reasonable approximation of the affinity of interaction (Kd). Peptides were tested in two to four completely independent experiments. […] Final detergent concentration in the incubation mixture was 0.05% Nonidet P-40. Assays were performed at pH 7.0 with the exception of DR3, which was performed at pH 4.5, and DRw53, which was performed at pH 5.0.
as §2

[6] = molecular target: T4, DRB5*0101 (DR2w2a) (Homo sapiens, UniProt P01903+Q30154); assay: Class II peptide-binding assay, DR2w2a (DR2w2B2);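 further: competitive binding assay: unlabeled peptide inhibiting binding of a radiolabeled probe peptide to purified DR molecules at pH 7.0, IC50 approximating Kd, lower means stronger binding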
T4 construct: used as sources of human HLA class II molecules; endogenous in cells; host or cells: GM3107 (EBV-transformed homozygous B cell line)

[7] = molecular target: T5, DRB1*0301 (DR3w17) (Homo sapiens, UniProt P01903+P01911, A100K/A102G/A103R/A169T/F55Y/I96L/K41T/L162R/M171V/P40S/Q125H/Q178H/Q39Y/R42S/S66N/T106N/T262R/W38E/Y61H); assay: Class II peptide-binding assay, DR3 (pH 4.5);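 further: unlabeled peptide competing with a radiolabeled probe peptide for binding to affinity-purified HLA-DR3, IC50 regarded as an approximation of Kd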
T5 construct: used as sources of human HLA class II molecules; endogenous in cells; host or cells: MAT (EBV-transformed homozygous B cell line)
T5 sequence (P01903 26-254, other chains not shown): as above

[8] = molecular target: T6, DRB1*0401 (DR4w4) (Homo sapiens, UniProt P01903+P01911, A100K/A169T/F76Y/I96L/K127E/L162R/M171V/N62H/P40V/Q125Y/R42H/S133A/S149N/S66Y/V115G/V209L/W38E); assay: Class II peptide-binding assay, DR4w4;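 further: unlabeled test peptides compete with a radiolabeled probe peptide for binding to affinity-purified HLA-DR, with DR amount titrated to capture a small fraction of label, IC50 approximating Kd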
T6 construct: used as sources of human HLA class II molecules; endogenous in cells; host or cells: PREISS (EBV-transformed homozygous B cell line)
Experimental: as §1, §3, §2

[9] = read-out: In IC50 Format DR4w14, Table VIII
[10] = read-out: In IC50 Format DR5w11, Table VIII
[11] = read-out: In IC50 Format DR7, Table VIII
[12] = read-out: In IC50 Format DR1, Table VIII
[13] = read-out: In IC50 Format DR2w2β2, Table VIII
[14] = read-out: In IC50 Format DR3, Table VIII
[15] = read-out: In IC50 Format DR4w4, Table VIII
[16] = read-out: DR4w14 nM (In IC50 Format), purified HLA DR4w14
[17] = read-out: DR5w11 nM (In IC50 Format), purified HLA DR5w11
[18] = read-out: DR7 nM (In IC50 Format), purified HLA DR7
[19] = read-out: DR1 nM (In IC50 Format), purified HLA DR1
[20] = read-out: DR2w2B2 nM (In IC50 Format), purified HLA DR2w2β2
[21] = read-out: DR3 nM (In IC50 Format), purified HLA DR3
[22] = read-out: DR4w4 nM (In IC50 Format), purified HLA DR4w4

| Molecule | Total Alleles Bound [1] | IC50 [2, 16] [nM] | IC50 [3, 17] [nM] | IC50 [4, 18] [nM] | IC50 [5, 19] [nM] | IC50 [6, 20] [nM] | IC50 [7, 21] [nM] | IC50 [8, 22] [nM] | also measured |
| --- | --- | --- | --- | --- | --- | --- | --- | --- | --- |
| CC[C@H](C)[C@H](NC(=O)[C@H](CO)NC(=O)[C@H](CO)NC(=O)[C@H](CC(N)=O)NC(=O)[C@@H](NC(=O)[C@@H](NC(=O)[C@H](CC(N)=O)NC(=O)[C@@H](N)Cc1ccccc1)C(C)C)C(C)C)C(=O)NCC(=O)N[C@@H](CC(C)C)C(=O)N[C@H](C(=O)N[C@@H](CCSC)C(=O)N[C@H](C(=O)N[C@@H](CC(C)C)C(=O)N[C@@H](CO)C(=O)O)C(C)C)[C@@H](C)CC [Peptide 27.384] | – | – | – | – | – | – | – | – | Total Alleles Bound ([1]; Table V B) Correct Predictions, 12 DR molecules listed): 4 |
| CC[C@H](C)[C@H](NC(=O)[C@H](CO)NC(=O)[C@H](CO)NC(=O)[C@H](CC(N)=O)NC(=O)[C@@H](NC(=O)[C@@H](NC(=O)[C@H](CC(N)=O)NC(=O)[C@H](Cc1ccccc1)NC(=O)[C@@H](NC(=O)[C@H](CO)NC(=O)[C@@H](N)CO)C(C)C)C(C)C)C(C)C)C(=O)NCC(=O)N[C@@H](CC(C)C)C(=O)N[C@H](C(=O)N[C@@H](CCSC)C(=O)O)[C@@H](C)CC [Peptide 27.392] | 6 | – | – | – | – | – | – | – | – |
| CC[C@H](C)[C@H](NC(=O)[C@H](CC(C)C)NC(=O)[C@H](Cc1ccccc1)NC(=O)[C@@H](NC(=O)[C@@H](NC(=O)[C@@H](NC(=O)[C@H](CC(C)C)NC(=O)[C@H](Cc1ccc(O)cc1)NC(=O)[C@H](CCCCN)NC(=O)[C@@H](NC(=O)[C@@H](N)CC(N)=O)C(C)C)C(C)C)[C@@H](C)CC)C(C)C)C(=O)N[C@@H](Cc1ccccc1)C(=O)N[C@@H](Cc1ccccc1)C(=O)N[C@@H](CC(=O)O)C(=O)N[C@@H](CC(C)C)C(=O)O [Peptide 27.415] | 2 | – | – | – | – | – | – | – | – |
| CC[C@H](C)[C@H](NC(=O)[C@@H](NC(=O)[C@H](CC(N)=O)NC(=O)[C@H](CCCCN)NC(=O)[C@@H](N)C(C)C)C(C)C)C(=O)NCC(=O)N1CCC[C@H]1C(=O)N[C@@H](Cc1ccccc1)C(=O)N[C@@H](CCSC)C(=O)N[C@@H](CCCCN)C(=O)N[C@@H](C)C(=O)N[C@H](C(=O)N[C@@H](CS)C(=O)N[C@H](C(=O)N[C@@H](CCC(=O)O)C(=O)O)C(C)C)C(C)C [Peptide 27.417] | 6 | – | – | – | – | – | – | – | – |
| CC[C@H](C)[C@H](N)C(=O)N[C@@H](CCCCN)C(=O)N[C@@H](CC(C)C)C(=O)N1CCC[C@H]1C(=O)N[C@H](C(=O)N[C@H](C(=O)N[C@@H](CC(C)C)C(=O)N[C@@H](C)C(=O)N[C@@H](Cc1ccccc1)C(=O)N[C@@H](C)C(=O)N[C@H](C(=O)N[C@@H](CS)C(=O)N[C@@H](Cc1ccccc1)C(=O)N[C@@H](CC(C)C)C(=O)N[C@H](C(=O)N1CCC[C@H]1C(=O)O)[C@@H](C)CC)[C@@H](C)O)[C@@H](C)CC)[C@@H](C)CC [Peptide 1136.12] | 4 | – | – | – | – | – | – | – | – |
| CC(C)C[C@H](NC(=O)[C@H](Cc1c[nH]c2ccccc12)NC(=O)[C@@H](NC(=O)[C@H](Cc1ccccc1)NC(=O)[C@@H](NC(=O)[C@@H]1CCCN1C(=O)[C@H](CC(C)C)NC(=O)[C@H](C)NC(=O)[C@@H]1CCCN1C(=O)[C@H](CC(C)C)NC(=O)[C@H](Cc1ccccc1)NC(=O)[C@H](Cc1ccccc1)NC(=O)[C@H](CCC(N)=O)NC(=O)[C@H](CO)NC(=O)[C@@H](NC(=O)[C@@H](N)CC(C)C)[C@@H](C)O)C(C)C)[C@@H](C)O)C(=O)O [Peptide 1136.16] | 7 | – | – | – | – | – | – | – | – |
| CC[C@H](C)[C@H](NC(=O)[C@H](CC(=O)O)NC(=O)[C@H](CC(C)C)NC(=O)[C@@H](NC(=O)CNC(=O)[C@@H](NC(=O)[C@@H](NC(=O)[C@@H](NC(=O)[C@@H](NC(=O)[C@H](C)NC(=O)[C@H](CC(C)C)NC(=O)[C@@H](NC(=O)[C@H](CC(N)=O)NC(=O)[C@H](CO)NC(=O)[C@H](CC(C)C)NC(=O)[C@@H](N)CC(N)=O)C(C)C)[C@@H](C)O)[C@@H](C)CC)[C@@H](C)O)[C@@H](C)O)C(C)C)C(=O)O [Peptide 1136.24] | 4 | – | – | – | – | – | – | – | – |
| CC[C@H](C)[C@H](NC(=O)[C@H](CC(C)C)NC(=O)[C@H](CC(=O)O)NC(=O)[C@@H](NC(=O)[C@H](Cc1ccccc1)NC(=O)[C@H](Cc1ccc(O)cc1)NC(=O)[C@H](Cc1c[nH]cn1)NC(=O)[C@H](Cc1c[nH]cn1)NC(=O)[C@@H](N)[C@@H](C)O)C(C)C)C(=O)NCC(=O)NCC(=O)N[C@@H](C)C(=O)N[C@@H](CCSC)C(=O)N[C@@H](CC(C)C)C(=O)N[C@@H](CO)C(=O)N[C@@H](CC(C)C)C(=O)O [Peptide 1136.47] | 4 | – | – | – | – | – | – | – | – |
| CC(C)[C@H](NC(=O)[C@H](CO)NC(=O)[C@@H](NC(=O)[C@H](C)NC(=O)[C@H](CO)NC(=O)[C@H](CO)NC(=O)[C@H](C)NC(=O)[C@H](C)NC(=O)[C@H](Cc1ccc(O)cc1)NC(=O)[C@@H](NC(=O)[C@H](CO)NC(=O)CNC(=O)[C@H](CCC(N)=O)NC(=O)[C@@H]1CCCN1C(=O)[C@@H](N)CCC(=O)O)[C@@H](C)O)[C@@H](C)O)C(=O)N[C@@H](CC(=O)O)C(=O)O [Peptide 1136.71] | 5 | – | – | – | – | – | – | – | – |
| KYLEFISEAIIHVLHSR [Peptide 508.01] | – | – | – | – | – | – | – | – | IC50 [2, 9]: 2500 nM; IC50 [3, 10]: 4000 nM; IC50 [4, 11]: 338 nM; IC50 [5, 12]: 294 nM; IC50 [6, 13]: 20000 nM; IC50 [7, 14]: 25000 nM; IC50 [8, 15]: 136 nM |
| LLVIVELIPSTSS [Peptide 778.00] | – | 82.5 | 1110 | 5000 | 67.6 | 2220 | 60000 | 28.1 | – |
| LSGSHLVEALYLVSGERGFF [Peptide 734.02] | – | 1020 | 10000 | 124 | 14.4 | 2860 | 30000 | 865 | – |
| LVEALYLVSGERGFFYTPKT [Peptide 734.03] | – | 704 | 2500 | 926 | 39.7 | 1820 | 1570 | 1150 | – |
| LVHSSNNFGAILSSTNVGS [Peptide 735.04] | – | 12.5 | 1250 | 961 | 161 | 5000 | 15800 | 11 | – |
| NPVVHFFKNIVTPRTPPPS [Peptide 765.09] | – | 35.7 | 18.7 | 66.8 | 13.5 | 158 | 50000 | 7.4 | – |
| RLANSLVHSSNNFGAILSS [Peptide 735.03] | – | 12.8 | 202 | 556 | 84.7 | 10000 | 25000 | 11 | – |
| TSATQRLANSLVHSSNNFG [Peptide 735.02] | – | 13.2 | 130 | 373 | 111 | 10000 | 33300 | 5.4 | – |
| VHHANENIFYCPIAIMSALA [Peptide 703.03] | – | – | – | – | – | – | – | – | IC50 [2, 9]: 333 nM; IC50 [3, 10]: 1110 nM; IC50 [4, 11]: > 6250 nM; IC50 [5, 12]: 147 nM; IC50 [6, 13]: > 10000 nM; IC50 [7, 14]: 42900 nM; IC50 [8, 15]: 63.3 nM |
| YAAYVKLTAARKFA-NH2 [Peptide 806.03] | – | 4550 | 1.3 | 4.4 | 2.1 | 0.7 | 23100 | 21.4 | – |
| YASFVSQTAQRLFY-NH2 [Peptide 717.03] | – | 6250 | 2500 | 25 | 1.9 | 8 | 15800 | 11 | – |
